“And” between values parts separate entries of the source, which are not always exact repeats. Identical values can stand only once. Each block holds one molecule with its values, some of them ahead of it.
How the values were obtained:
[1] = In vitro BBB permeability, BBB Kit; assay type: in vitro ADME; details: Wistar, rat
[2] = PK study after intranasal administration; assay type: in vivo, mice; details: for concentration at 5 min / concentration at 15 min / concentration at 30 min / concentration at 45 min: other: intranasal, drug concentration in plasma; for Tmax at 7 days / Cmax at 7 days: 32.4 ug; for AUC(0-t): AUC0–t; for half-life: T1/2, plasma
[3] = Solubility studies of K-604 in different vehicles; assay type: physicochemical
[4] = pH 6.8; cited from earlier work
[5] = PK study after oral administration; assay type: in vivo, mice
[6] = 0.01 N HCl solution, 32.4 μg/mouse intranasal vs oral 166 μg/mouse, cerebrum
[7] = CA solution, 108 μg/mouse intranasal vs oral 166 μg/mouse, cerebrum
[8] = GA solution, 108 μg/mouse intranasal vs oral 166 μg/mouse, cerebrum
[9] = HA solution, 108 μg/mouse intranasal vs oral 166 μg/mouse, cerebrum
[10] = female, Crl:CDI (ICR), mouse, plasma, 32.4 μg, repeated intranasal, 0.01 N HCl solution, 10 μL, mice
[11] = female, Crl:CDI (ICR), mouse, plasma, 162 μg, repeated (7 days) intranasal, 0.01 N HCl solution, 50 μL, mice
[12] = female, ICR, mouse, plasma, inhaled or intranasal, 108 ug, single intranasal, CA solution, 108 μg/10 μL, mice
[13] = female, ICR, mouse, plasma, inhaled or intranasal, 108 ug, single intranasal, GA solution, 108 μg/10 μL, mice
[14] = female, ICR, mouse, plasma, inhaled or intranasal, 108 ug, single intranasal, HA solution, 108 μg/10 μL, mice
[15] = repeated (7 days) intranasal, 0.01 N HCl solution, 32.4 μg/10 μL, mice
[16] = single intranasal, CA solution, 108 μg/10 μL, mice
[17] = single intranasal, GA solution, 108 μg/10 μL, mice
[18] = single intranasal, HA solution, 108 μg/10 μL, mice
[19] = female, ICR, mouse, cerebellum, po, 6 mg/kg
[20] = female, ICR, mouse, cerebrum, po, 6 mg/kg
[21] = female, ICR, mouse, plasma, po, 6 mg/kg
[22] = single oral 6 mg/kg (166 μg/mouse), 0.01 N HCl solution, mice

- Papp at 30 min, 1 μM [1]: 47.8 ×10⁻⁶ cm/s
SMILES: NC(=O)N1c2ccccc2C=Cc2ccccc21 [carbamazepine, 5H-dibenzo[b,f]azepine-5-carboxamide, reference compound]

- Papp at 30 min, 1 μM [1]: 21.9 ×10⁻⁶ cm/s
- intranasal AUC BTE index [2, 6]: 211
- intranasal Cmax BTE index [2, 6]: 134
- drug concentration in plasma relative to cerebral tissue, fold higher ([2]; 5 to 45 min, repeated intranasal, 0.01 N HCl solution, 50 μL, mice): 6- to 10 fold
- intranasal AUC BTE index [2, 7]: 133
- intranasal Cmax BTE index [2, 7]: 90
- intranasal AUC BTE index [2, 8]: 100
- intranasal Cmax BTE index [2, 8]: 61
- intranasal AUC BTE index [2, 9]: 137
- intranasal Cmax BTE index [2, 9]: 75
- Tmax ([2]; female, Crl:CD1 (ICR), mouse, cerebrum, inhaled or intranasal, 108 ug): 15 min
- Tmax ([2]; female, Crl:CD1 (ICR), mouse, olfactory bulb, inhaled or intranasal, 108 ug): 15 min
- Tmax ([2]; female, Crl:CD1 (ICR), mouse, plasma, inhaled or intranasal, 108 ug): 5 min
- Cmax ([2]; female, Crl:CDI (ICR), mouse, cerebrum, inhaled or intranasal, 162 ug, cerebrum, repeated (7 days) intranasal, 0.01 N HCl solution, 162 μg/50 μL, mice): 83 ng/g
- Cmax ([2]; female, Crl:CDI (ICR), mouse, cerebrum, inhaled or intranasal, 162 ug, cerebrum, single intranasal, 0.01 N HCl solution, 162 μg/50 μL, mice): 66 ng/g
- Cmax ([2]; female, Crl:CDI (ICR), mouse, olfactory bulb, inhaled or intranasal, 162 ug, olfactory bulb, repeated (7 days) intranasal, 0.01 N HCl solution, 162 μg/50 μL, mice): 285 ng/g
- Cmax ([2]; female, Crl:CDI (ICR), mouse, olfactory bulb, inhaled or intranasal, 162 ug, olfactory bulb, single intranasal, 0.01 N HCl solution, 162 μg/50 μL, mice): 406 ng/g
- AUC ([2]; female, Crl:CDI (ICR), mouse, plasma, inhaled or intranasal, 162 ug): 345 ng·h/mL
- Cmax ([2]; female, Crl:CDI (ICR), mouse, plasma, inhaled or intranasal, 162 ug, plasma, repeated (7 days) intranasal, 0.01 N HCl solution, 162 μg/50 μL, mice): 870 ng/mL
- Cmax ([2]; female, Crl:CDI (ICR), mouse, plasma, inhaled or intranasal, 162 ug, plasma, single intranasal, 0.01 N HCl solution, 162 μg/50 μL, mice): 574 ng/mL
- concentration at 5 min [2, 10]: 142 ng/mL
- concentration at 15 min [2, 10]: 90 ng/mL
- concentration at 30 min [2, 10]: 33 ng/mL
- concentration at 45 min [2, 10]: 10 ng/mL
- concentration at 5 min [2, 11]: 870 ng/mL
- concentration at 15 min [2, 11]: 449 ng/mL
- concentration at 30 min [2, 11]: 250 ng/mL
- concentration at 45 min [2, 11]: 77 ng/mL
- Tmax at 7 days ([2]; female, ICR, mouse, cerebrum, inhaled or intranasal): 5 min
- Cmax at 7 days ([2]; female, ICR, mouse, cerebrum, inhaled or intranasal, repeated (7 days) intranasal, 0.01 N HCl solution, 32.4 μg/10 μL, mice): 21 ± 10 ng/g
- Tmax ([2]; female, ICR, mouse, cerebrum, inhaled or intranasal, 108 ug): 5 min
- Cmax ([2]; female, ICR, mouse, cerebrum, inhaled or intranasal, 108 ug, single intranasal, CA solution, 108 μg/10 μL, mice): 47 ± 29 ng/g
- Cmax ([2]; female, ICR, mouse, cerebrum, inhaled or intranasal, 108 ug, single intranasal, GA solution, 108 μg/10 μL, mice): 32 ± 7 ng/g
- Cmax ([2]; female, ICR, mouse, cerebrum, inhaled or intranasal, 108 ug, single intranasal, HA solution, 108 μg/10 μL, mice): 39 ± 11 ng/g
- Tmax at 7 days ([2]; female, ICR, mouse, olfactory bulb, inhaled or intranasal): 5 min
- Cmax at 7 days ([2]; female, ICR, mouse, olfactory bulb, inhaled or intranasal, repeated (7 days) intranasal, 0.01 N HCl solution, 32.4 μg/10 μL, mice): 156 ± 131 ng/g
- Tmax ([2]; female, ICR, mouse, olfactory bulb, inhaled or intranasal, 108 ug): 5 min
- Cmax ([2]; female, ICR, mouse, olfactory bulb, inhaled or intranasal, 108 ug, single intranasal, CA solution, 108 μg/10 μL, mice): 351 ± 112 ng/g
- Cmax ([2]; female, ICR, mouse, olfactory bulb, inhaled or intranasal, 108 ug, single intranasal, GA solution, 108 μg/10 μL, mice): 160 ± 24 ng/g
- Cmax ([2]; female, ICR, mouse, olfactory bulb, inhaled or intranasal, 108 ug, single intranasal, HA solution, 108 μg/10 μL, mice): 274 ± 100 ng/g
- Tmax at 7 days ([2]; female, ICR, mouse, plasma, inhaled or intranasal): 5 min
- Cmax at 7 days ([2]; female, ICR, mouse, plasma, inhaled or intranasal, repeated (7 days) intranasal, 0.01 N HCl solution, 32.4 μg/10 μL, mice): 146 ± 20 ng/mL
- Tmax ([2]; female, ICR, mouse, plasma, inhaled or intranasal, 108 ug): 5 min
- AUC(0-t) [2, 12]: 165 ng·h/mL
- AUC(0-t) [2, 13]: 121 ng·h/mL
- AUC(0-t) [2, 14]: 170 ng·h/mL
- Cmax [2, 12]: 283 ± 121 ng/mL
- Cmax [2, 13]: 217 ± 51 ng/mL
- Cmax [2, 14]: 274 ± 30 ng/mL
- half-life [2, 12]: 13.4 ± 1.7 min
- half-life [2, 13]: 16.6 ± 2.9 min
- half-life [2, 14]: 17.4 ± 2.1 min
- AUC0–t, cerebrum [2, 15]: 367 ng·min/g and 367 ± 121 ng·min/g
- AUC0–t, olfactory bulb [2, 15]: 2113 ± 1380 ng·min/g
- AUC0–t, cerebrum [2, 16]: 772 ng·min/g and 772 ± 223 ng·min/g
- AUC0–t, olfactory bulb [2, 16]: 3976 ± 642 ng·min/g
- Tmax, plasma [2, 16]: 5 min
- AUC0–t, cerebrum [2, 17]: 579 ng·min/g and 579 ± 137 ng·min/g
- AUC0–t, olfactory bulb [2, 17]: 3406 ± 2127 ng·min/g
- AUC0–t, cerebrum [2, 18]: 791 ng·min/g and 791 ± 160 ng·min/g
- AUC0–t, olfactory bulb [2, 18]: 5200 ± 1036 ng·min/g
- solubility at 24 h ([3]; CA aqueous solution (additive 7.7 mg, 0.04 M), pH 3, thermodynamic from solid): 10.8 mg/mL
- solubility at 24 h ([3]; GA aqueous solution (additive 4 mg, 0.04 M), pH 3.6, thermodynamic from solid): 10.8 mg/mL
- solubility at 24 h ([3]; HA aqueous solution (additive 5 mg), pH 3.8, thermodynamic from solid): 10.8 mg/mL
- solubility ([3]; water, pH 6.8, water): 0.05 mg/mL
- Cmax [5, 19]: 0.7 ± 0.3 ng/g
- Tmax [5, 19]: 15 min
- Cmax [5, 20]: 0.8 ± 0.4 ng/g
- Tmax [5, 20]: 15 min
- AUC(0-t) [5, 21]: 3.29 ng·h/mL
- Cmax [5, 21]: 6.2 ± 3.1 ng/mL
- Tmax [5, 21]: 15 min
- AUC0–t, cerebellum [5, 22]: 5.4 ± 4.9 ng·min/g
- AUC0–t, olfactory bulb [5, 22]: 0 ± 0 ng·min/g
- drug concentrations in the olfactory bulb tissue, all time points ([5]; single oral 6 mg/kg, mice, LLOQ 1 ng/g): less than the LLOQ
SMILES: CSc1cc(C)nc(SC)c1NC(=O)CN1CCN(CCSc2nc3ccccc3[nH]2)CC1.Cl [K-604, 2-(4-(2-((1H-Benzo[d]imidazol-2-yl)thio)ethyl)piperazin-1-yl)-N-(6-methyl-2,4-bis(methylthio)pyridin-3-yl)acetamide hydrochloride]
- Aqueous solubility [4]: 0.05 mg/mL
- AUC0–t, cerebrum ([5]; single oral 6 mg/kg (166 μg/mouse), 0.01 N HCl solution, mice, 6 mg/kg): 8.9 ng·min/g and 9 ng·min/g and 8.9 ± 7.4 ng·min/g
- drug concentrations in cerebrum and cerebellum tissue at 60 min ([5]; single oral 6 mg/kg, mice, LLOQ 0.5 ng/g): less than the lower limit of quantification (LLOQ)

From article PMC6796924 (ACS Omega, 2019)
